Test results published in the kinase profiling compilation of Christmann-Franck et al. (2016).

Key:
Assay in all cases: radiometric filter-binding kinase assay, Kinase HotSpot
Details in all cases: compound 0.5 µM; ATP 10 µM
[1] = molecular target: ADRBK1 (human) (UniProt P25098)
[2] = molecular target: AURKB (human) (UniProt Q96GD4)
[3] = molecular target: CAMK2A (human) (UniProt Q9UQM7)
[4] = molecular target: CDK2 CCNE1 (human) (UniProt P24941+P24864)
[5] = molecular target: CHUK (human) (UniProt O15111)
[6] = molecular target: CLK1 (human) (UniProt P49759)
[7] = molecular target: CLK4 (human) (UniProt Q9HAZ1)
[8] = molecular target: EPHA7 (human) (UniProt Q15375)
[9] = molecular target: EPHB3 (human) (UniProt P54753)
[10] = molecular target: EPHB4 (human) (UniProt P54760)
[11] = molecular target: ERBB2 (human) (UniProt P04626)
[12] = molecular target: IGF1R (human) (UniProt P08069)
[13] = molecular target: IRAK4 (human) (UniProt Q9NWZ3)
[14] = molecular target: KDR (human) (UniProt P35968)
[15] = molecular target: MAP3K10 (human) (UniProt Q02779)
[16] = molecular target: MAP3K7 TAB1 (human) (UniProt O43318+Q15750)
[17] = molecular target: MAP3K8 (human) (UniProt P41279)
[18] = molecular target: MAP4K5 (human) (UniProt Q9Y4K4)
[19] = molecular target: MAPK10 (human) (UniProt P53779)
[20] = molecular target: MAPKAPK2 (human) (UniProt P49137)
[21] = molecular target: MAPKAPK3 (human) (UniProt Q16644)
[22] = molecular target: MET (human) (UniProt P08581)
[23] = molecular target: NTRK1 (human) (UniProt P04629)
[24] = molecular target: PASK (human) (UniProt Q96RG2)
[25] = molecular target: PIM1 (human) (UniProt P11309)
[26] = molecular target: PRKCB2 (human) (UniProt P05771)
[27] = molecular target: PRKCE (human) (UniProt Q02156)
[28] = molecular target: PRKCG (human) (UniProt P05129)
[29] = test system: PRKCQ (human), Q04759 [P330L]
[30] = molecular target: PRKD3 (human) (UniProt O94806)
[31] = molecular target: PTK2 (human) (UniProt Q05397)
[32] = molecular target: PTK6 (human) (UniProt Q13882)
[33] = molecular target: RET (human) (UniProt P07949)
[34] = molecular target: RPS6KA1 KD1 KD2 (human) (UniProt Q15418)
[35] = molecular target: RPS6KA4 KD2 (human) (UniProt O75676)
[36] = molecular target: RPS6KA5 KD2 (human) (UniProt O75582)
[37] = molecular target: RPS6KA6 KD1 KD2 (human) (UniProt Q9UK32)
[38] = molecular target: SRPK1 (human) (UniProt Q96SB4)
[39] = molecular target: STK25 (human) (UniProt O00506)
[40] = molecular target: TAOK1 (human) (UniProt Q7L7X3)
[41] = molecular target: ULK1 (human) (UniProt O75385)
[42] = molecular target: YES1 (human) (UniProt P07947)

CAMK2A (human), sequence (Q9UQM7 whole entry, looked up): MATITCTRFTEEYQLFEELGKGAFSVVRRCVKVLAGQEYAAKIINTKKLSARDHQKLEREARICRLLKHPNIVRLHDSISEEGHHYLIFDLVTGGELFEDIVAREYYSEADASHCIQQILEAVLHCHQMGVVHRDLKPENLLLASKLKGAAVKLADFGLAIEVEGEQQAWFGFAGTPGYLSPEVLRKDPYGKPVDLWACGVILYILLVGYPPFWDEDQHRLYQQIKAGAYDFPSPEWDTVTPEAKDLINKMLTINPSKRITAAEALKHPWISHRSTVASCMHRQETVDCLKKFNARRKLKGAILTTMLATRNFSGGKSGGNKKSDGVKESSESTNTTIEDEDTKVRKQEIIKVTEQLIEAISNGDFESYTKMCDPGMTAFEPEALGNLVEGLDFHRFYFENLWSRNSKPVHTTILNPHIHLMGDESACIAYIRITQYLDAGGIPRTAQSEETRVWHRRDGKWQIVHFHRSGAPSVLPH
MAPK10 (human), sequence (P53779 whole entry, looked up): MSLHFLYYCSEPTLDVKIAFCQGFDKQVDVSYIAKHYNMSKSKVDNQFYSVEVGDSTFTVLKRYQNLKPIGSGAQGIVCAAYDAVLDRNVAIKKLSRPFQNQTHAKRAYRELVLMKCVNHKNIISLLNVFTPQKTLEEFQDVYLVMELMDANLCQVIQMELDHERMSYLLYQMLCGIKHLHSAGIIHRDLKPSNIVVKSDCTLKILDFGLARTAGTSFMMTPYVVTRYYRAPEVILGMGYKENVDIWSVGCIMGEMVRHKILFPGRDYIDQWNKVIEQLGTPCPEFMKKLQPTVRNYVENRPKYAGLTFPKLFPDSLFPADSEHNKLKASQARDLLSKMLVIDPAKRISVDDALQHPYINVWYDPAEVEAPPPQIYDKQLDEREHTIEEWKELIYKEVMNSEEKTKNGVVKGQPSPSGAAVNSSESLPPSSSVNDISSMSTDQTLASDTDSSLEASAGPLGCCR
ERBB2 (human), sequence (P04626 whole entry, looked up): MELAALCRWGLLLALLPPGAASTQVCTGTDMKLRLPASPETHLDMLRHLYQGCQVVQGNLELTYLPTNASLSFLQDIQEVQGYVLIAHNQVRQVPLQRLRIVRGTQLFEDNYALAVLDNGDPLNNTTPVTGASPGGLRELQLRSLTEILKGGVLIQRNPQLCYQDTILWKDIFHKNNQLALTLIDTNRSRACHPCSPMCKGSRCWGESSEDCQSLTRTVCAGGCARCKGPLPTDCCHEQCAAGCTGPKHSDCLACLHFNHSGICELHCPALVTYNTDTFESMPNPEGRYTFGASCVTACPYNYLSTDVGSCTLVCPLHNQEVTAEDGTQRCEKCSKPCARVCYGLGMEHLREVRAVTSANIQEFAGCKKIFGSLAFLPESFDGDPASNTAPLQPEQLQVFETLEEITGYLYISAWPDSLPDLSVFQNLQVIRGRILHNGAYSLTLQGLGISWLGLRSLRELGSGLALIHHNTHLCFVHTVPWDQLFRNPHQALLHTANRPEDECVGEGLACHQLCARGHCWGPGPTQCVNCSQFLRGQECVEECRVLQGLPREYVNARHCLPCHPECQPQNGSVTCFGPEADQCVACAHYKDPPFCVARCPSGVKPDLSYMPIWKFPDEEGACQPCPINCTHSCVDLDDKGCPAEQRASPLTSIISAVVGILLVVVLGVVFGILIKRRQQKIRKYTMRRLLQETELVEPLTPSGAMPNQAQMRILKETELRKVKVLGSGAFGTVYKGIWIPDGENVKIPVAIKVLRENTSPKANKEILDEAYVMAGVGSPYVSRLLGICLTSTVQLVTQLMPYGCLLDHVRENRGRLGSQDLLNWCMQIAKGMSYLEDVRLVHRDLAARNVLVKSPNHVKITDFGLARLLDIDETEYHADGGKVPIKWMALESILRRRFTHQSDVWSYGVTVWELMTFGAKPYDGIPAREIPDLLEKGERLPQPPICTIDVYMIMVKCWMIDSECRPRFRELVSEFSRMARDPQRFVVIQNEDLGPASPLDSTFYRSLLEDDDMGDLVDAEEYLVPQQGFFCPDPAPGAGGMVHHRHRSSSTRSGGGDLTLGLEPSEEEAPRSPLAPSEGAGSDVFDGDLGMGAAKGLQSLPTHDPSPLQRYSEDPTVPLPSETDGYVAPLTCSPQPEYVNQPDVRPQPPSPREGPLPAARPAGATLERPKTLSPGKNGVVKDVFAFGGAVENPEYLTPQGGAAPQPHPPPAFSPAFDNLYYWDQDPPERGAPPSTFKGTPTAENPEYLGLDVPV
ULK1 (human), sequence (O75385 whole entry, looked up): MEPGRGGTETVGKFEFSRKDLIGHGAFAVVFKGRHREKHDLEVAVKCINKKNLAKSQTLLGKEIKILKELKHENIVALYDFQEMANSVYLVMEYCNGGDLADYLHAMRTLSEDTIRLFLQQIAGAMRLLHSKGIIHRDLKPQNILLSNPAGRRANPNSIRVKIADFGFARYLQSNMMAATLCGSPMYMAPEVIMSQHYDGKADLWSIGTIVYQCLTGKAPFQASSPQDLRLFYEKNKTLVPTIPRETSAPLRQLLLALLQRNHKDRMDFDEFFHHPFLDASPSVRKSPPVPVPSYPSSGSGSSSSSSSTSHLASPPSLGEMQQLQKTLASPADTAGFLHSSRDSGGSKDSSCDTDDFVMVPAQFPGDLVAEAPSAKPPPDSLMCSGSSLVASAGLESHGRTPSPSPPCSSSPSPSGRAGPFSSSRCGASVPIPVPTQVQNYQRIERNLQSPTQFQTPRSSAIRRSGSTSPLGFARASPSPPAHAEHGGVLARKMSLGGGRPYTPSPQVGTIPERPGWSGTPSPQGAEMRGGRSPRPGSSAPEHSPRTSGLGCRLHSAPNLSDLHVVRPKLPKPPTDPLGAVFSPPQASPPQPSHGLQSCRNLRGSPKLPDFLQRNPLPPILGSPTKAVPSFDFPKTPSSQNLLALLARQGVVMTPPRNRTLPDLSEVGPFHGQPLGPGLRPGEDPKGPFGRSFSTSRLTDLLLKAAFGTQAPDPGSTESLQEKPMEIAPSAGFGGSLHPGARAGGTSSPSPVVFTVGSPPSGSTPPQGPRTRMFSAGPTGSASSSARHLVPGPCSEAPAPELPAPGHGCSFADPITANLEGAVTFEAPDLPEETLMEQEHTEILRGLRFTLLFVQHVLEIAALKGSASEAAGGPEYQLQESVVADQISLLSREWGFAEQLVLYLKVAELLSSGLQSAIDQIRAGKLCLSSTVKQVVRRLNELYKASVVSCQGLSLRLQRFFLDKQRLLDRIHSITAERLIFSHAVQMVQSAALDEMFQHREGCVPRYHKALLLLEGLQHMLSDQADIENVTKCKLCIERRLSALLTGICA
RPS6KA1 KD1 KD2 (human), sequence (Q15418 whole entry, looked up): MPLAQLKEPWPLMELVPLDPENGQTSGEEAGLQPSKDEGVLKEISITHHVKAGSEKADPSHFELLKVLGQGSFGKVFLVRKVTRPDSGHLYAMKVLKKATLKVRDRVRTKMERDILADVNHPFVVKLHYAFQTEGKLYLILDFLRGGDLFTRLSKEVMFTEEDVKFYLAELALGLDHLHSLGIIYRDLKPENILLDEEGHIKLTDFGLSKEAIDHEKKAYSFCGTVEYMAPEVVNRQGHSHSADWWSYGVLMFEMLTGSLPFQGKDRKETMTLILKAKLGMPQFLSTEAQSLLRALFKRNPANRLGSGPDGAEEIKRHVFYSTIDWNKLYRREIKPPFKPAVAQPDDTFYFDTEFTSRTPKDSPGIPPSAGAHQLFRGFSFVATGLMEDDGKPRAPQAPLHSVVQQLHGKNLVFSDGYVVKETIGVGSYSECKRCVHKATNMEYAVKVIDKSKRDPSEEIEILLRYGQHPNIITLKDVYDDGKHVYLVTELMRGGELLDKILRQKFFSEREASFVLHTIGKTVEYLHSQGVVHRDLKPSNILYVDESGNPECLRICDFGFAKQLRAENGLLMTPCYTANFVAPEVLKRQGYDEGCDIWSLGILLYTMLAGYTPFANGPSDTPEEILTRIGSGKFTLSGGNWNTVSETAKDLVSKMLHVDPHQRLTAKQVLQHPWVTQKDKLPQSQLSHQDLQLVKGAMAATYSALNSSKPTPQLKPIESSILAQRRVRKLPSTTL
CLK4 (human), sequence (Q9HAZ1 whole entry, looked up): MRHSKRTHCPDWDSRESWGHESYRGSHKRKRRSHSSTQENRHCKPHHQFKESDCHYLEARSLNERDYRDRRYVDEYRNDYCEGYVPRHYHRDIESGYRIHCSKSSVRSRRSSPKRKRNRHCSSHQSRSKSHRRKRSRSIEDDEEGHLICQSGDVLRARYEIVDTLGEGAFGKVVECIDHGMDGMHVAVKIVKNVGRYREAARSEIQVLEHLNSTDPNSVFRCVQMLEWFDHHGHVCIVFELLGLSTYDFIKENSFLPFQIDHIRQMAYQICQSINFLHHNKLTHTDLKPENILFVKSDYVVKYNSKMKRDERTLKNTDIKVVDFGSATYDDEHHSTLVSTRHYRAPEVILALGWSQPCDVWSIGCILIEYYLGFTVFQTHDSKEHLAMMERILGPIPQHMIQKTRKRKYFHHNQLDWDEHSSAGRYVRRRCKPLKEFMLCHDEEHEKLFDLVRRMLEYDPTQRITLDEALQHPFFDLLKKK
MAPKAPK3 (human), sequence (Q16644 whole entry, looked up): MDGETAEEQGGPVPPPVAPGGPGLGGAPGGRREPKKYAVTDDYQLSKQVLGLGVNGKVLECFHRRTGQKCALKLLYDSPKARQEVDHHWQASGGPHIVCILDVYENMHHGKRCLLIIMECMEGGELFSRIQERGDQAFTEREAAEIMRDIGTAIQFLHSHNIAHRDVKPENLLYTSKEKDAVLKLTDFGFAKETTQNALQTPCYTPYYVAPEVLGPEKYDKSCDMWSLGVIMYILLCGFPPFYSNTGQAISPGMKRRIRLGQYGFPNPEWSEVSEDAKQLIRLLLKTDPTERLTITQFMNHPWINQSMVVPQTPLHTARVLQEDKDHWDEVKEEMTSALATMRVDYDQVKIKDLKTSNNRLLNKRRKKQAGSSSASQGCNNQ

## COc1ccc(C(=O)Nc2sc3c(c2C(N)=O)CCCC3)cc1OC
[1]
  residual activity: 96.8%
[2]
  residual activity: 96.2%
[3]
  residual activity: 100%
[4]
  residual activity: 94.6%
[5]
  residual activity: 83.3%
[6]
  residual activity: 96.9%
[7]
  residual activity: 86.8%
[8]
  residual activity: 96.2%
[9]
  residual activity: 92.4%
[10]
  residual activity: 93.9%
[11]
  residual activity: 93.3%
[12]
  residual activity: 97.7%
[13]
  residual activity: 94.8%
[14]
  residual activity: 78.2%
[15]
  residual activity: 96.6%
[16]
  residual activity: 101%
[17]
  residual activity: 106%
[18]
  residual activity: 94.3%
[19]
  residual activity: 84.5%
[20]
  residual activity: 104%
[21]
  residual activity: 97.2%
[22]
  residual activity: 82.8%
[23]
  residual activity: 104%
[24]
  residual activity: 101%
[25]
  residual activity: 98.9%
[26]
  residual activity: 93.5%
[27]
  residual activity: 95%
[28]
  residual activity: 93%
[29]
  residual activity: 97.5%
[30]
  residual activity: 103%
[31]
  residual activity: 116%
[32]
  residual activity: 97.8%
[33]
  residual activity: 102%
[34]
  residual activity: 87%
[35]
  residual activity: 102%
[36]
  residual activity: 105%
[37]
  residual activity: 98.5%
[38]
  residual activity: 82.6%
[39]
  residual activity: 91.7%
[40]
  residual activity: 95.5%
[41]
  residual activity: 96%
[42]
  residual activity: 88.3%

## N#Cc1c[nH]c2c[nH]/c(=N\Cc3cccnc3)cc2/c1=N\c1ccc(F)c(Cl)c1
[1]
  residual activity: 95.7%
[2]
  residual activity: 90.1%
[3]
  residual activity: 105%
[4]
  residual activity: 94.1%
[5]
  residual activity: 96.3%
[6]
  residual activity: 91%
[7]
  residual activity: 63.3%
[8]
  residual activity: 83.7%
[9]
  residual activity: 98.5%
[10]
  residual activity: 85.2%
[11]
  residual activity: 91.7%
[12]
  residual activity: 93.8%
[13]
  residual activity: 100%
[14]
  residual activity: 96.3%
[15]
  residual activity: 101%
[16]
  residual activity: 89.5%
[17]
  residual activity: 79.1%
[18]
  residual activity: 61.7%
[19]
  residual activity: 95%
[20]
  residual activity: 100%
[21]
  residual activity: 94%
[22]
  residual activity: 94.9%
[23]
  residual activity: 96.2%
[24]
  residual activity: 124%
[25]
  residual activity: 92.7%
[26]
  residual activity: 86.2%
[27]
  residual activity: 101%
[28]
  residual activity: 111%
[29]
  residual activity: 113%
[30]
  residual activity: 90.4%
[31]
  residual activity: 99.6%
[32]
  residual activity: 84.1%
[33]
  residual activity: 107%
[34]
  residual activity: 94.6%
[35]
  residual activity: 92%
[36]
  residual activity: 102%
[37]
  residual activity: 104%
[38]
  residual activity: 102%
[39]
  residual activity: 95.6%
[40]
  residual activity: 89.9%
[41]
  residual activity: 76.1%
[42]
  residual activity: 93.6%

## NC(=O)c1cccc(-c2cc(Nc3ccc(OC(F)(F)F)cc3)ncn2)c1
[1]
  residual activity: 96.1%
[2]
  residual activity: 96.9%
[3]
  residual activity: 102%
[4]
  residual activity: 86.6%
[5]
  residual activity: 95%
[6]
  residual activity: 115%
[7]
  residual activity: 97.8%
[8]
  residual activity: 99.1%
[9]
  residual activity: 98%
[10]
  residual activity: 90.6%
[11]
  residual activity: 89.5%
[12]
  residual activity: 91%
[13]
  residual activity: 159%
[14]
  residual activity: 99.8%
[15]
  residual activity: 95.4%
[16]
  residual activity: 99.1%
[17]
  residual activity: 96.8%
[18]
  residual activity: 97.8%
[19]
  residual activity: 104%
[20]
  residual activity: 97.3%
[21]
  residual activity: 98%
[22]
  residual activity: 135%
[23]
  residual activity: 96.6%
[24]
  residual activity: 100%
[25]
  residual activity: 101%
[26]
  residual activity: 122%
[27]
  residual activity: 111%
[28]
  residual activity: 83.6%
[29]
  residual activity: 104%
[30]
  residual activity: 93.2%
[31]
  residual activity: 100%
[32]
  residual activity: 94.5%
[33]
  residual activity: 105%
[34]
  residual activity: 92.7%
[35]
  residual activity: 85.8%
[36]
  residual activity: 104%
[37]
  residual activity: 94.2%
[38]
  residual activity: 98%
[39]
  residual activity: 94.5%
[40]
  residual activity: 92.9%
[41]
  residual activity: 97.5%
[42]
  residual activity: 87.4%

## COc1ccc2c(c1)c(C1=C(c3c[nH]c4ccccc34)C(=O)NC1=O)cn2CCCN(C)C
[1]
  residual activity: 99%
[2]
  residual activity: 88.5%
[3]
  residual activity: 102%
[4]
  residual activity: 97.9%
[5]
  residual activity: 96.5%
[6]
  residual activity: 48.2%
[7]
  residual activity: 32.8%
[8]
  residual activity: 88.8%
[9]
  residual activity: 97%
[10]
  residual activity: 94.2%
[11]
  residual activity: 115%
[12]
  residual activity: 115%
[13]
  residual activity: 91.2%
[14]
  residual activity: 40.7%
[15]
  residual activity: 83.4%
[16]
  residual activity: 102%
[17]
  residual activity: 93.8%
[18]
  residual activity: 27.7%
[19]
  residual activity: 88.8%
[20]
  residual activity: 99.7%
[21]
  residual activity: 92.3%
[22]
  residual activity: 85.6%
[23]
  residual activity: 83.1%
[24]
  residual activity: 83.8%
[25]
  residual activity: 11.6%
[26]
  residual activity: 14.2%
[27]
  residual activity: 14.6%
[28]
  residual activity: 54%
[29]
  residual activity: 4.5%
[30]
  residual activity: 91.9%
[31]
  residual activity: 88.2%
[32]
  residual activity: 92%
[33]
  residual activity: 79.9%
[34]
  residual activity: 16%
[35]
  residual activity: 78.6%
[36]
  residual activity: 61.3%
[37]
  residual activity: 4.52%
[38]
  residual activity: 116%
[39]
  residual activity: 55.7%
[40]
  residual activity: 99.5%
[41]
  residual activity: 99%
[42]
  residual activity: 90.4%
